Source: PubChem BioAssay (NCI)
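Assay format: 96-well plates, 48-hour exposure. TGI: concentration producing complete growth inhibition.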

Experiments:
Assay in all cases: NCI anticancer screen, dose series, 48 h
M14 melanoma = test system: M14 melanoma
SNB-19 CNS = test system: SNB-19 CNS
A549 NSCLC = test system: A549 NSCLC
HOP-62 NSCLC = test system: HOP-62 NSCLC
HS 578T breast = test system: HS 578T breast
HL-60(TB) leukemia = test system: HL-60(TB) leukemia
COLO 205 colon = test system: COLO 205 colon
HCT-15 colon = test system: HCT-15 colon
UO-31 renal = test system: UO-31 renal
NCI-H522 lung = test system: NCI-H522 lung
786-0 renal = test system: 786-0 renal
OVCAR-5 ovarian = test system: OVCAR-5 ovarian
HOP-92 NSCLC = test system: HOP-92 NSCLC
HCC-2998 colon = test system: HCC-2998 colon
MDA-MB-435 = test system: MDA-MB-435
SNB-75 CNS = test system: SNB-75 CNS
DU-145 prostate = test system: DU-145 prostate
MDA-MB-231 breast = test system: MDA-MB-231 breast
MDA-N = test system: MDA-N
SN12C renal = test system: SN12C renal
ACHN renal = test system: ACHN renal
NCI-H460 lung = test system: NCI-H460 lung
NCI-H226 lung = test system: NCI-H226 lung
SK-MEL-28 melanoma = test system: SK-MEL-28 melanoma
A498 renal = test system: A498 renal
UACC-257 melanoma = test system: UACC-257 melanoma
NCI/ADR-RES ovarian = test system: NCI/ADR-RES ovarian
U251 CNS = test system: U251 CNS
IGROV1 ovarian = test system: IGROV1 ovarian
SR leukemia = test system: SR leukemia
SK-MEL-2 melanoma = test system: SK-MEL-2 melanoma
BT-549 breast = test system: BT-549 breast
SF-295 CNS = test system: SF-295 CNS
PC-3 prostate = test system: PC-3 prostate
SK-OV-3 ovarian = test system: SK-OV-3 ovarian
HT29 colon = test system: HT29 colon
EKVX NSCLC = test system: EKVX NSCLC
HCT-116 colon = test system: HCT-116 colon
OVCAR-3 ovarian = test system: OVCAR-3 ovarian
SF-539 CNS = test system: SF-539 CNS
MALME-3M melanoma = test system: MALME-3M melanoma
OVCAR-4 ovarian = test system: OVCAR-4 ovarian
LOX IMVI melanoma = test system: LOX IMVI melanoma
KM12 colon = test system: KM12 colon
TK-10 renal = test system: TK-10 renal
T-47D breast = test system: T-47D breast
CAKI-1 renal = test system: CAKI-1 renal
NCI-H23 lung = test system: NCI-H23 lung
CCRF-CEM leukemia = test system: CCRF-CEM leukemia
SK-MEL-5 melanoma = test system: SK-MEL-5 melanoma
SW-620 colon = test system: SW-620 colon
MOLT-4 leukemia = test system: MOLT-4 leukemia
MCF7 breast = test system: MCF7 breast
K-562 leukemia = test system: K-562 leukemia
RPMI-8226 leukemia = test system: RPMI-8226 leukemia
UACC-62 melanoma = test system: UACC-62 melanoma
OVCAR-8 ovarian = test system: OVCAR-8 ovarian
SF-268 CNS = test system: SF-268 CNS
RXF 393 renal = test system: RXF 393 renal

**Q.** How did the TGI (M14 melanoma) turn out when `CCOC(=O)C1=C(C)C(C(=O)OC)/C(=C/c2cccc3cccnc23)C1=O` (stereo not drawn) was run?
**A.** > 10 µM

**Q.** What about the TGI (SNB-19 CNS) of the same compound?
**A.** > 10 µM

**Q.** And the TGI (A549 NSCLC)?
**A.** > 10 µM

**Q.** And the TGI (HOP-62 NSCLC)?
**A.** > 10 µM

**Q.** And the TGI (HS 578T breast)?
**A.** > 10 µM

**Q.** And the TGI (HL-60(TB) leukemia)?
**A.** > 10 µM

**Q.** And the TGI (COLO 205 colon)?
**A.** > 10 µM

**Q.** What about the TGI (HCT-15 colon) of the same compound?
**A.** > 10 µM

**Q.** What about the TGI (UO-31 renal) of the same compound?
**A.** > 10 µM

**Q.** What about the TGI (NCI-H522 lung) of the same compound?
**A.** > 10 µM

**Q.** And the TGI (786-0 renal)?
**A.** > 10 µM

**Q.** What about the TGI (OVCAR-5 ovarian) of the same compound?
**A.** > 10 µM

**Q.** What about the TGI (HOP-92 NSCLC) of the same compound?
**A.** > 10 µM

**Q.** What about the TGI (HCC-2998 colon) of the same compound?
**A.** > 10 µM

**Q.** What about the TGI (MDA-MB-435) of the same compound?
**A.** > 10 µM

**Q.** What about the TGI (SNB-75 CNS) of the same compound?
**A.** > 10 µM

**Q.** What about the TGI (DU-145 prostate) of the same compound?
**A.** > 10 µM

**Q.** What about the TGI (MDA-MB-231 breast) of the same compound?
**A.** > 10 µM

**Q.** And the TGI (MDA-N)?
**A.** > 10 µM

**Q.** What about the TGI (SN12C renal) of the same compound?
**A.** > 10 µM

**Q.** And the TGI (ACHN renal)?
**A.** > 10 µM

**Q.** What about the TGI (NCI-H460 lung) of the same compound?
**A.** > 10 µM

**Q.** And the TGI (NCI-H226 lung)?
**A.** > 10 µM

**Q.** What about the TGI (SK-MEL-28 melanoma) of the same compound?
**A.** > 10 µM

**Q.** And the TGI (A498 renal)?
**A.** > 10 µM

**Q.** And the TGI (UACC-257 melanoma)?
**A.** > 10 µM

**Q.** And the TGI (NCI/ADR-RES ovarian)?
**A.** > 10 µM

**Q.** What about the TGI (U251 CNS) of the same compound?
**A.** > 10 µM

**Q.** And the TGI (IGROV1 ovarian)?
**A.** > 10 µM

**Q.** What about the TGI (SR leukemia) of the same compound?
**A.** > 10 µM

**Q.** What about the TGI (SK-MEL-2 melanoma) of the same compound?
**A.** > 10 µM

**Q.** And the TGI (BT-549 breast)?
**A.** > 10 µM

**Q.** And the TGI (SF-295 CNS)?
**A.** > 10 µM

**Q.** And the TGI (PC-3 prostate)?
**A.** > 10 µM

**Q.** And the TGI (SK-OV-3 ovarian)?
**A.** > 10 µM

**Q.** What about the TGI (HT29 colon) of the same compound?
**A.** > 10 µM

**Q.** What about the TGI (EKVX NSCLC) of the same compound?
**A.** > 10 µM

**Q.** And the TGI (HCT-116 colon)?
**A.** > 10 µM

**Q.** And the TGI (OVCAR-3 ovarian)?
**A.** > 10 µM

**Q.** And the TGI (SF-539 CNS)?
**A.** > 10 µM

**Q.** And the TGI (MALME-3M melanoma)?
**A.** > 10 µM

**Q.** What about the TGI (OVCAR-4 ovarian) of the same compound?
**A.** > 10 µM

**Q.** What about the TGI (LOX IMVI melanoma) of the same compound?
**A.** > 10 µM

**Q.** What about the TGI (KM12 colon) of the same compound?
**A.** > 10 µM

**Q.** And the TGI (TK-10 renal)?
**A.** > 10 µM

**Q.** And the TGI (T-47D breast)?
**A.** > 10 µM

**Q.** What about the TGI (CAKI-1 renal) of the same compound?
**A.** > 10 µM

**Q.** And the TGI (NCI-H23 lung)?
**A.** > 10 µM

**Q.** What about the TGI (CCRF-CEM leukemia) of the same compound?
**A.** > 10 µM

**Q.** And the TGI (SK-MEL-5 melanoma)?
**A.** > 10 µM

**Q.** What about the TGI (SW-620 colon) of the same compound?
**A.** > 10 µM

**Q.** And the TGI (MOLT-4 leukemia)?
**A.** > 10 µM

**Q.** What about the TGI (MCF7 breast) of the same compound?
**A.** > 10 µM

**Q.** What about the TGI (K-562 leukemia) of the same compound?
**A.** > 10 µM

**Q.** And the TGI (RPMI-8226 leukemia)?
**A.** > 10 µM

**Q.** And the TGI (UACC-62 melanoma)?
**A.** > 10 µM

**Q.** What about the TGI (OVCAR-8 ovarian) of the same compound?
**A.** > 10 µM

**Q.** And the TGI (SF-268 CNS)?
**A.** > 10 µM

**Q.** What about the TGI (RXF 393 renal) of the same compound?
**A.** > 10 µM

**Q.** Which results are given for `CC1CC[C@@]2(OC1)O[C@H]1C[C@H]3[C@@H]4CC[C@H]5C[C@@H](OC6OC(CO)C(OC7OC(CO)C(OC8OC(CO)C(O)C(OC9OC(C)C(OC%10OC(C)C(O)C(O)C%10O)C(O)C9O)C8OC8OCC(O)C(O)C8O)C(O)C7O)C(O)C6O)CC[C@]5(C)[C@H]4CC(=O)[C@]3(C)[C@H]1[C@@H]2C` (stereo partly drawn)?
**A.** TGI (M14 melanoma): 41.7 µM; TGI (SNB-19 CNS): 39.4 µM; TGI (A549 NSCLC): 51.3 µM; TGI (HOP-62 NSCLC): 45.5 µM; TGI (HS 578T breast): 50.7 µM; TGI (HL-60(TB) leukemia): 27.6 µM; TGI (COLO 205 colon): 30.1 µM; TGI (HCT-15 colon): 35.2 µM; TGI (UO-31 renal): 44.5 µM; TGI (NCI-H522 lung): 42.4 µM; TGI (786-0 renal): 54.9 µM; TGI (OVCAR-5 ovarian): 40.3 µM; TGI (HOP-92 NSCLC): 38.2 µM; TGI (HCC-2998 colon): 32.8 µM; TGI (MDA-MB-435): 35.7 µM; TGI (SNB-75 CNS): 36.5 µM; TGI (DU-145 prostate): 40.4 µM; TGI (MDA-MB-231 breast): 30.1 µM; TGI (MDA-N): 39.4 µM; TGI (SN12C renal): 40.9 µM; TGI (ACHN renal): 30.9 µM; TGI (NCI-H460 lung): 32.9 µM; TGI (NCI-H226 lung): 35.5 µM; TGI (SK-MEL-28 melanoma): 34.3 µM; TGI (A498 renal): 32.1 µM; TGI (UACC-257 melanoma): 32.3 µM; TGI (NCI/ADR-RES ovarian): 43.2 µM; TGI (U251 CNS): 33.3 µM; TGI (IGROV1 ovarian): 37.4 µM; TGI (SR leukemia): 30.3 µM; TGI (SK-MEL-2 melanoma): 30 µM; TGI (BT-549 breast): 37 µM; TGI (SF-295 CNS): 39.3 µM; TGI (PC-3 prostate): 30.9 µM; TGI (SK-OV-3 ovarian): 41.6 µM; TGI (HT29 colon): > 100 µM; TGI (EKVX NSCLC): 40.4 µM; TGI (HCT-116 colon): 52.9 µM; TGI (OVCAR-3 ovarian): 42.3 µM; TGI (SF-539 CNS): 28.5 µM; TGI (MALME-3M melanoma): 41.3 µM; TGI (OVCAR-4 ovarian): 32.7 µM; TGI (LOX IMVI melanoma): 53.5 µM; TGI (KM12 colon): 36.1 µM; TGI (TK-10 renal): 31.5 µM; TGI (T-47D breast): 43.2 µM; TGI (CAKI-1 renal): 29.3 µM; TGI (NCI-H23 lung): 35.8 µM; TGI (CCRF-CEM leukemia): 29.2 µM; TGI (SK-MEL-5 melanoma): 30.4 µM; TGI (SW-620 colon): 42 µM; TGI (MOLT-4 leukemia): 34.6 µM; TGI (MCF7 breast): 31.8 µM; TGI (K-562 leukemia): 32.7 µM; TGI (RPMI-8226 leukemia): 33.3 µM; TGI (UACC-62 melanoma): 32.8 µM; TGI (OVCAR-8 ovarian): 38.4 µM; TGI (SF-268 CNS): 56.9 µM; TGI (RXF 393 renal): 35.7 µM
